From patent publication US8557526B2, “Synaptotagmin and collapsin response mediator protein as biomarkers for traumatic brain injury” (University of Florida Research Foundation, Inc., priority 2007, dated 2013) come the findings set out here.

Assay [1] deals with T1, recombinant human caspase-3 (Homo sapiens, UniProt P42574).
T1 construct: purchased Chemicon
T1 sequence (P42574 29-175 limits assumed): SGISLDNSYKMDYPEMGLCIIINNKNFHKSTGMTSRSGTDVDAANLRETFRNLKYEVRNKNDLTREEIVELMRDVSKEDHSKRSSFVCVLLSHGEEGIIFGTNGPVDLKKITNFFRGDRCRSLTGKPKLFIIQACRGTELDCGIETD
T1 sequence (P42574 176-277 limits assumed): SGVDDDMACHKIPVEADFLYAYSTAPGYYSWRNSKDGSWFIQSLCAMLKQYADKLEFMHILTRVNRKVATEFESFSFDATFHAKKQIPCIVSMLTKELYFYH
Nature of the assay: In vitro caspase-3 digestion of naïve brain lysate (CRMP2 immunoblot). In kind it is biochemical. Here is the method: (§1) In vitro digestion of rat brain lysate (5 mg) was performed with the purified proteases human erythrocyte calpain-1, rat recombinant calpain-2 (Calbiochem, San Diego, Calif.) and recombinant human caspase-3 (Chemicon, Temecula, Calif.) in a buffer containing 100 mM Tris-HCl (pH 7.4) and 20 mM DTT. For calpain, 2 mM CaCl2 was also added, and then incubated at room temperature for 30 minutes. For caspase-3, samples were incubated at 37° C. for four hours. Protease reactions were stopped by the addition of calpain inhibitor SJA6017 to a concentration of 30 μM (Senju Pharmaceuticals, Kobe, Japan) or pan-caspase inhibitor Z-VAD to a concentration of 20 μM and a protease inhibitor cocktail solution.
(§2) This example was to determine whether CRMP2 proteolysis was calpain mediated following TBI, similar to the proteolysis found in cell culture after neurotoxin treatment. […] The complete inhibition of calpain and caspase activity was confirmed by parallel monitoring of calpain and caspase associated αII-spectrin degradation. […] Therefore, calpain produced the 55 kDa CRMP-2 BDP, while caspase-3 was ruled out.
For orientation: A western blot detects proteins with antibodies after separation by electrophoresis.

Assay [2] has as its system primary cortical neurons. In words: CRMP immunoblot after neurotoxin treatment of primary cortical neurons, with or without protease inhibitors. In kind it is cell-based, rat. Conditions: for STS-mediated generation of the 55 kDa CRMP2 BDP (effect of inhibitor): STS 0.5 μM challenge, primary cortical neurons; for formation of the 55 kDa CRMP2 BDP after NMDA treatment (effect of inhibitor pretreatment): pretreatment of primary cortical culture; for integrity of intact CRMP2 / appearance of 55 kDa BDP after neurotoxin: NMDA 200 μM, MTX, STS 0.5 μM, EDTA 5 mM; for CRMP5 after neurotoxin / intact CRMP1 and CRMP4 after neurotoxin: NMDA 200 μM 6 hours, maitotoxin 3 nM 3 hours. Here is the method: Primary cortical neurons from first post-natal day Sprague-Dawley rat brains were plated on poly-L-lysine coated culture plates (Erie Scientific, Portsmouth, N.H., U.S.A.). Cells were dissociated with trypsin and DNase I, re-suspended in 10% plasma-derived horse serum (PDHS) in Dulbecco's modified Eagle's medium (DMEM), and plated on poly-L-lysine treated 35 mm (density: 3.0×10^6 cells per well) plates. Cells were allowed to grow in an atmosphere of 10% CO2 at 37° C. for three days and then treated with 1 μM 4-amino-6-hydrazino-7-β-D-ribofuranosyl-7H-pyrrolo (2,3-d)-pyrimidine-5-carboxamide (ARC) for two days. The ARC was removed and fresh 10% PDHS was added in DMEM, after which the cells were grown for an additional 10-14 days.
Protein concentrations of cell or tissue lysates were determined via Bio-Rad DC Protein Assay (Bio-Rad, Hercules, Calif.). Protein balanced samples were prepared for sodium dodecyl sulfate-polyacrylamide gel electrophoresis (SDS-PAGE) in a two-fold loading buffer containing 0.25 M Tris (pH 6.8), 0.2 M DTT, 8% SDS, 0.02% bromophenol blue, and 20% glycerol in distilled water. Samples were heated for 90 seconds at 90° C. and centrifuged for 2 minutes. Twenty micrograms (20 μg) of protein per lane were routinely resolved by SDS-PAGE on Tris-glycine gels for 2 hours at 130V. Following electrophoresis, separated proteins were laterally transferred to polyvinylidene fluoride (PVDF) membranes in a transfer buffer containing 39 mM glycine and 48 mM Tris-HCl (pH 8.3) 5% methanol at a constant voltage of 20 V for 2 hours at ambient temperature in a semi-dry transfer unit (Bio-Rad) by the semi-dry method.
Rat CRMP5 antibody (targeting to residues 369-564, Chemicon, Temecula, Calif.) was dialyzed with PBS using Slide-A-Lyzer MINI Dialysis Units, (Pierce, 3.5MWCO, 69550, Rockford, Ill.). Then CRMP5 was biotinylated by using EZ-link, sulfo-NHS-LC-LC-biotin by following the manufacture's instructions. Membranes were blotted either with anti-CRMP-1, or -4 (targeting residues 499-511, Chemicon), biotinylated-anti-CRMP5 antibodies or anti-CRMP2 (C4G) or a C-terminal anti-CRMP2 antibody raised against a synthetic peptides of residues 551-559), and developed with biotin and avidin-conjugated alkaline phosphatase (this step was skipped in CRMP5 blotting) and nitroblue tetrazolium and 5-bromo-4-chloro-3-indolyl phosphate. Quantitative evaluation of protein levels was performed via computer-assisted densitometric scanning (NIH Image J V.1.6 software).

For assay [3], the system named is primary cortical neurons. In words: LDH release assay of NMDA induced neuronal cell injury. Type of assay: cell-based, rat. Conditions: for protection against NMDA induced neuronal cell injury (LDH release): time course, protection within 6 hours. Here is the method: LDH release assays were performed to determine the role of calpain and caspase inhibition on NMDA induced neuronal cell injury, and to draw a link with CRMP2 degradation. The release of LDH, normally present in the cytoplasm of neurons, into the cell culture media can be used as a measure of dying cells.
(LDH in the medium is a marker of cell lysis.)

The target of the next assay is T2, calpain (Rattus norvegicus, UniProt Q07009).
T2 construct: purchased Calbiochem
T2 sequence (Q07009 20-700 limits assumed): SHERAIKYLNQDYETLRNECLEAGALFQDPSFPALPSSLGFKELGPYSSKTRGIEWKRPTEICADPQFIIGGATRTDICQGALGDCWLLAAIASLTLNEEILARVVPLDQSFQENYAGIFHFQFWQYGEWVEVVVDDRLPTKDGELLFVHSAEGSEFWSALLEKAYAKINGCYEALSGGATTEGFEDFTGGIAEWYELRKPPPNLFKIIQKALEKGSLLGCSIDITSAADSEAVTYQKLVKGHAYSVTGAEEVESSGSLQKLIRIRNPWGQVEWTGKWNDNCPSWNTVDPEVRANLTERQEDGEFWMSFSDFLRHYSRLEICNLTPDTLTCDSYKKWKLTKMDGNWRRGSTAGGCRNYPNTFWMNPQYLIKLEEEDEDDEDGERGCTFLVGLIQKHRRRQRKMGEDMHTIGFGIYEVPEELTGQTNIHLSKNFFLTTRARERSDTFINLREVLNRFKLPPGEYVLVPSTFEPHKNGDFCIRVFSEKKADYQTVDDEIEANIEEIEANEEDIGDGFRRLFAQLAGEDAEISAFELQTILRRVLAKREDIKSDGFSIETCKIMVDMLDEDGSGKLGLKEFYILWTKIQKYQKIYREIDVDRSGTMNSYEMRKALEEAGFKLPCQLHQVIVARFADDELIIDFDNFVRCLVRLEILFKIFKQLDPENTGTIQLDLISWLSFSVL
T2 sequence (Q64537 88-270 partner limits assumed): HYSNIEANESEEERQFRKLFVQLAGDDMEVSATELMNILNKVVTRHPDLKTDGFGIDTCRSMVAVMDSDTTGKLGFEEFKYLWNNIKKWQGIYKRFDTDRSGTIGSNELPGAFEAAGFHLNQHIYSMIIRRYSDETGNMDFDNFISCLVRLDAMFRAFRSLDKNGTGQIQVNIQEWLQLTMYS
Nature of the assay: In vitro calpain digestion of naïve brain lysate (CRMP2 immunoblot). Type of assay: biochemical. Conditions: pretreatment of naïve lysate. Here is the method:
as §1, §2

Assay [4] relates to rat cerebrocortical cultures. Nature of the assay: Synaptotagmin-1 fragmentation and vesicle organization in neurotoxin-challenged neuronal cultures. In kind it is cell-based. Conditions: for fragmentation of 65 kDa synaptotagmin-1 protein (33-36 kDa N-terminal fragments): oncotic, apoptotic and excitotoxic challenge; for organization of synaptotagmin-coupled vesicles: cerebrocortical neurons and cerebellar granule neurons. Here is the method:
Cerebrocortical cells harvested from 1-day old Sprague-Dawley rat brains were plated on poly-L-lysine coated on 6-well culture plates (Erie Scientific, Portsmouth, N.H., USA) at a density of 4.36×10^5 cells/mL. Cultures were maintained in Dulbecco's modified Eagle's medium (DMEM) with 10% fetal bovine serum in a humidified incubator in an atmosphere of 10% CO2 at 37° C. After 5 days in culture, the media were changed to DMEM with 5% horse serum. Subsequent media changes were performed three times a week. Experiments were performed on days 10 to 11 in vitro when astroglia had formed a confluent monolayer beneath morphologically mature neurons.
Cerebrocortical cultures (12-day-old) from above were washed three times with serum-free MEM.
After electrotransfer, blotting membranes were blocked for 1 hour at ambient temperature in 5% non-fat milk in TBS and 0.05% […] (TBST), then incubated in primary monoclonal synaptotagmin-1 antibody (BD Cat# 610434) in TBST with 5% milk at 1/50 dilution as recommended by the manufacturer at 4° C. overnight, followed by three washes with TBST and a 2 hour incubation at ambient temperature with a secondary antibody linked to biotinylated secondary antibody (Amersham, Cat # RPN1177v1) followed by a 30 min incubation with strepavidin-conjugated alkaline phosphatase (calorimetric method). Colorimetric development was performed with a one-step BCIP NBT reagent (KPL, Cat # 50-81-08). Molecular weights of intact synaptotagmin-1 protein and their potential breakdown products (BDPs) were assessed by running along side rainbow colored molecular weight standards (Amersham, Cat # RPN800V).

For Z-VAD, the “66 kDa intact CRMP2 band after caspase-3 treatment with inhibitor” value in assay [1] is reported as “did completely disappear”. In the assay on primary cortical neurons [2], the “STS-mediated generation of the 55 kDa CRMP2 BDP (effect of inhibitor)” value is listed as “offered no protection” and the “formation of the 55 kDa CRMP2 BDP after NMDA treatment (effect of inhibitor pretreatment)” value is “not”. Besides, the “protection against NMDA induced neuronal cell injury (LDH release)” value in the assay on primary cortical neurons [3] (NMDA treatment) is given as “no protection”.

Take `CC(C)C[C@@H](C=O)NC(=O)[C@@H](NS(=O)(=O)c1ccc(F)cc1)C(C)C` [SJA6017]: in the assay on primary cortical neurons [2], the “STS-mediated generation of the 55 kDa CRMP2 BDP (effect of inhibitor)” value is reported as “effectively blocked” and the “formation of the 55 kDa CRMP2 BDP after NMDA treatment (effect of inhibitor pretreatment)” value is on record as “prevented the formation of the 55 kDa CRMP2 BDP”. For the same molecule, the “formation of the 55 kDa CRMP-2 BDP by calpain in naïve brain lysate (effect of inhibitor)” value on calpain was “blocked formation of the 55 kDa CRMP-2 BDP”. Also, in the assay with primary cortical neurons [3] (NMDA treatment), the “protection against NMDA induced neuronal cell injury (LDH release)” value is recorded as “significant protection within 6 hours”. Also, the “protection of neurons from excitotoxic injury after 12 hours” value in the assay with primary cortical neurons [3] (preincubation with inhibitor, after 12 hours) is reported as “did not effectively protect”.

As to `CN[C@@H]1C[C@H]2O[C@@](C)([C@@H]1OC)n1c3ccccc3c3c4c(c5c6ccccc6n2c5c31)C(=O)NC4` [STS, staurosporine], in assay [4], the “fragmentation of 65 kDa synaptotagmin-1 protein (33-36 kDa N-terminal fragments)” value (“fragmentation” for short) is “fragmented by calpain into N-terminal fragments”. Also, the “integrity of intact CRMP2 / appearance of 55 kDa BDP after neurotoxin” value with primary cortical neurons [2] is reported as “rapidly degraded to the 55 kDa BDP”.

Regarding `CN[C@H](CC(=O)O)C(=O)O` [NMDA, N-Methyl-D-Asparate], in assay [4], the “organization of synaptotagmin-coupled vesicles” value is “extensive disorganization” and the “fragmentation” value was “fragmented by calpain into N-terminal fragments”. In addition, in the assay on primary cortical neurons [2], the CRMP5 after neurotoxin entry was “no remarkable change”; the “intact CRMP1 and CRMP4 after neurotoxin” value was “Decrease of CRMP1 and CRMP4”; the “integrity of intact CRMP2 / appearance of 55 kDa BDP after neurotoxin” value is recorded as “marked reduction”. In addition, the “time of appearance of the 55 kDa CRMP2 BDP” value in the assay with primary cortical neurons [2] (NMDA 200 μM time course) was at most 3 h. Moreover, the “neuron death (LDH release)” value with primary cortical neurons [3] (NMDA treatment, peaking at 24 hours) is reported as “induced significant neuron death after a 3 hour induction”.

On to `C=CC[C@H](C)[C@H](C)C[C@@H](O)[C@H](O)[C@@H]1CC[C@@]2(C)O[C@@]3(C)C[C@@]4(C)O[C@H]5/C=C\C[C@H]6O[C@H]7C[C@H]8O[C@H]9C[C@@]%10(C)O[C@@](C)([C@@H]%11CC[C@H]%12O[C@@]%13(C)C[C@H]%14O[C@@]%15(C)C[C@H]%16O[C@@]%17(C)C[C@@H](O)[C@H]([C@@H]%18O[C@H]%19[C@H](O)[C@@H](O)[C@H](C[C@H](O)C[C@@H](O)[C@@H]%20O[C@H]%21[C@H](O)[C@@H](O)[C@H]([C@@H]%22O[C@@H]%23[C@H](O)[C@H]%24O[C@H]%25C[C@H]%26O[C@@H](C[C@H](O)[C@@H](O)[C@H]%27O[C@H]%28[C@H](O)[C@H]%29O[C@H]%30C[C@H]%31O[C@H]%32[C@@H](O)[C@@H](O)[C@H]([C@H](C)[C@H](O)[C@H](C)CC[C@H](OS(=O)(=O)O)[C@H](O)[C@H](C)C[C@@H](O)C(=C)/C(C)=C/CO)O[C@@H]%32[C@H](O)C[C@]%31(C)O[C@@H]%30C[C@]%29(C)O[C@@H]%28C[C@H]%27O)[C@H](OS(=O)(=O)O)[C@H](O)[C@@H]%26O[C@@H]%25C[C@@H]%24O[C@H]%23[C@H](O)[C@H]%22O)O[C@H]%21C[C@H]%20O)O[C@H]%19C[C@H]%18O)O[C@@H]%17[C@H](O)[C@]%16(C)O[C@@H]%15CC[C@]%14(C)O[C@@H]%13C[C@@H]%12O%11)[C@H](O)C[C@@H]%10O[C@]9(C)CC[C@]8(C)O[C@]7(C)C[C@@H]6O[C@@H]5C[C@@H]4O[C@@H]3C[C@@H]2O1` [MTX, maitotoxin], for which, in assay [4], the “organization of synaptotagmin-coupled vesicles” value was “extensive disorganization” and the “fragmentation” value is on record as “fragmented by calpain into N-terminal fragments”. In the assay on primary cortical neurons [2], the CRMP5 after neurotoxin result is on record as “no remarkable change”; the “intact CRMP1 and CRMP4 after neurotoxin” value is “Decrease of CRMP1 and CRMP4”.
